Laboratory results: ChEMBL document CHEMBL1133823, “Antiviral drug design: computational analyses of the effects of the L100I mutation for HIV-RT on the binding of NNRTIs” (Bioorg Med Chem Lett, 2001)
Several values for one entry are separate records, joined by “and”; a condition that tells them apart may be missing. Identical values can stand only once.

Legend:
[1] = Fold resistance (L100I/ WT) (as per ref 12 in the article)
[2] = Fold resistance (L100I/ WT) (as per ref 6 in the article)
[3] = Fold resistance (L100I/ WT) (as per ref 7 in the article)
[4] = Fold resistance (L100I/ WT) (as per ref 8 in the article)
[5] = Fold resistance (L100I/ WT) (as per ref 10 in the article)
[6] = molecular target: Human immunodeficiency virus type 1 reverse transcriptase (Human immunodeficiency virus 1, UniProt Q72547, L100I); experiment: Effective concentration required against L100I mutant HIV-1 reverse transcriptase
[7] = molecular target: Human immunodeficiency virus type 1 reverse transcriptase (Human immunodeficiency virus 1, UniProt Q72547); experiment: Effective concentration required against wild type HIV-1 reverse transcriptase
[8] = Fold resistance (L100I/ WT) was determined

Compound: Cc1ccnc2c1NC(=O)c1cccnc1N2C1CC1
- FR [1]: 5
- FR [2]: 0.6
- FR [3]: 2.1
- FR [4]: 12.7

Compound: O=C1Nc2ccc(Cl)cc2[C@@](C#CC2CC2)(C(F)(F)F)O1
- FR [5]: 5.9 and 8.6

Compound: CCOCn1c(Cc2ccccc2)c(C(C)C)c(=O)[nH]c1=O [EMIVIRINE]
- EC50 [6]: 20 nM
- EC50 [7]: 2 nM
- FR [8]: 10

Compound: CC(C)=CCN1Cc2cc(Cl)cc3[nH]c(=S)n(c23)C[C@@H]1C
- EC50 [6]: 5600 nM
- EC50 [7]: 60 nM
- FR [8]: 93.3

Compound: CC(C)=CCOc1cc(NC(=S)c2ccoc2C)ccc1Cl [UC 781]
- EC50 [6]: 24 nM
- EC50 [7]: 9 nM
- FR [8]: 2.7
